{"source": "ChEMBL document CHEMBL5346973", "about": "(J Med Chem, 2023)", "key": {"[1]": {"target": "Neuronal acetylcholine receptor subunit alpha-7 (Rattus norvegicus, UniProt Q05941)", "sequence (Q05941 whole entry)": "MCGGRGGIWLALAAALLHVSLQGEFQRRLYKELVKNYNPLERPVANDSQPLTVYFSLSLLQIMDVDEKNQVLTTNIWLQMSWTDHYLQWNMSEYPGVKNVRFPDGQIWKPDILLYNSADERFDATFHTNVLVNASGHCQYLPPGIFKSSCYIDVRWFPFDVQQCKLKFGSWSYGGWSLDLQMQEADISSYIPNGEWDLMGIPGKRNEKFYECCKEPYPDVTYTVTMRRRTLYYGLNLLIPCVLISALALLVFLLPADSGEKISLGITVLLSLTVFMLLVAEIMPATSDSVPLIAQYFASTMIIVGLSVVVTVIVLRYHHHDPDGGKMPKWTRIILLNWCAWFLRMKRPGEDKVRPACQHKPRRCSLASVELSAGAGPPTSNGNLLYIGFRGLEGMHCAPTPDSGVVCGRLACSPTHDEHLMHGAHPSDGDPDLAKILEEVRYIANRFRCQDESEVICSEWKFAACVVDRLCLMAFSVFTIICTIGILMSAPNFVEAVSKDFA", "assay": "Antagonist activity at rat alpha7 nACh receptor expressed in Xenopus oocyte assessed as inhibition of acetylcholine-induced response at -70 mV holding potential by voltage-clamp based electrophysiological assay", "assay_type": "cell-based"}, "[2]": {"target": "Nicotinic acetylcholine receptor alpha9/alpha10 (Rattus norvegicus, UniProt P43144+Q9JLB5)", "sequence (P43144 whole entry)": "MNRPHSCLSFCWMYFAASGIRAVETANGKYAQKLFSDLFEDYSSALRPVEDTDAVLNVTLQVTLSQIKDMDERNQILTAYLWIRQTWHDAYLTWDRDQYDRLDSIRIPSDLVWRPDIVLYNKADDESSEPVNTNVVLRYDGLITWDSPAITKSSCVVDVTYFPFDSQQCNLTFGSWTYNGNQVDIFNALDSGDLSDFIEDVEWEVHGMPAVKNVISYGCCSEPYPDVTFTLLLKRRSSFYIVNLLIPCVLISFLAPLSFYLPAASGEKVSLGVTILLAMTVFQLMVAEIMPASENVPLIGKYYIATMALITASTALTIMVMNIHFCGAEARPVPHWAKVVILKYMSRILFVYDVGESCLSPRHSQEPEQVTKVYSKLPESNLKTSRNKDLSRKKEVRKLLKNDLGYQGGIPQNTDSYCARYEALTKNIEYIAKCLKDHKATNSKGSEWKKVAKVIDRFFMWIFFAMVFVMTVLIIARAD", "sequence (Q9JLB5 whole entry)": "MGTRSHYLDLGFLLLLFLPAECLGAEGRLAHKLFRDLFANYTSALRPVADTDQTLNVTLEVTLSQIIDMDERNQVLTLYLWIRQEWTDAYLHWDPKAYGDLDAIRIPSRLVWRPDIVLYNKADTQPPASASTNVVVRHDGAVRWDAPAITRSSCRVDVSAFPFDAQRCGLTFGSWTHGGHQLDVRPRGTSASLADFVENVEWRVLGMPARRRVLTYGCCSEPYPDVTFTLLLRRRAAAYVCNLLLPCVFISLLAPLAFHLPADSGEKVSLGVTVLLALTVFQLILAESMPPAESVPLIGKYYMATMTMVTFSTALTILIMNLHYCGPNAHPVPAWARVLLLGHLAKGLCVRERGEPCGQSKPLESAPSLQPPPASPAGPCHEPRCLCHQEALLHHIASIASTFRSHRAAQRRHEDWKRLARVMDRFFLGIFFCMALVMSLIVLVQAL", "assay": "Antagonist activity at rat alpha9alpha10 nACh receptor expressed in Xenopus oocyte assessed as inhibition of acetylcholine-induced response at -70 mV holding potential by voltage-clamp based electrophysiological assay", "assay_type": "cell-based"}}, "note": "Where a SMILES comes first, the peptide text is derived from it."}
{"smiles": "CC[C@H](C)[C@@H]1NC(=O)[C@H](CCCNC(=N)N)NC(=O)[C@H](CCCNC(=N)N)NC(=O)[C@@H]2CSSC[C@H](NC(=O)[C@H](Cc3ccc(O)cc3)NC(=O)[C@H](CCCNC(=N)N)NC(=O)CNC(=O)[C@H](CO)NC(=O)[C@H](CO)NC(=O)[C@H](CCCNC(=N)N)NC(=O)[C@@H](NC(=O)[C@@H](N)[C@@H](C)O)CSSC[C@@H](C(=O)N[C@H](C(=O)O)C(C)C)NC(=O)[C@H](C)NC(=O)[C@H](CC(=O)O)NC(=O)[C@H]([C@@H](C)O)NC1=O)C(=O)N[C@@H](CCCNC(=N)N)C(=O)N[C@@H](CO)C(=O)N[C@@H](C)C(=O)N[C@@H](Cc1ccc(O)cc1)C(=O)N[C@@H](CC(=O)O)C(=O)N[C@@H](CCCNC(=N)N)C(=O)N[C@@H](CCCNC(=N)N)C(=O)N[C@@H](CCCNC(=N)N)C(=O)N[C@@H](CCCNC(=N)N)C(=O)N[C@@H](Cc1ccc(O)cc1)C(=O)N2", "note": "(HELM PEPTIDE1{T.C.R.S.S.G.R.Y.C.R.S.A.Y.D.R.R.R.R.Y.C.R.R.I.T.D.A.C.V}$PEPTIDE1,PEPTIDE1,2:R3-27:R3|PEPTIDE1,PEPTIDE1,9:R3-20:R3$$$V2.0)", "values": [{"measurement": "IC50", "setting": "[1]", "value": 1780, "unit": "nM"}, {"measurement": "IC50", "setting": "[2]", "value": 10, "unit": "nM"}]}
{"smiles": "CC[C@H](C)[C@@H]1NC(=O)[C@H](CCCNC(=N)N)NC(=O)[C@H](CCCNC(=N)N)NC(=O)[C@@H]2CSSC[C@H](NC(=O)[C@H](C)NC(=O)[C@H](CCCNC(=N)N)NC(=O)CNC(=O)[C@H](CO)NC(=O)[C@H](CO)NC(=O)[C@H](CCCNC(=N)N)NC(=O)[C@@H](NC(=O)[C@@H](N)[C@@H](C)O)CSSC[C@@H](C(=O)N[C@H](C(=O)O)C(C)C)NC(=O)[C@H](C)NC(=O)[C@H](CC(=O)O)NC(=O)[C@H]([C@@H](C)O)NC1=O)C(=O)N[C@@H](CCCNC(=N)N)C(=O)N[C@@H](CO)C(=O)N1CCC[C@H]1C(=O)N[C@@H](Cc1ccc(O)cc1)C(=O)N[C@@H](CC(=O)O)C(=O)N[C@@H](CCCNC(=N)N)C(=O)N[C@@H](CCCNC(=N)N)C(=O)N[C@@H](CCCNC(=N)N)C(=O)N[C@@H](CCCNC(=N)N)C(=O)N[C@@H](Cc1ccc(O)cc1)C(=O)N2", "note": "(HELM PEPTIDE1{T.C.R.S.S.G.R.A.C.R.S.P.Y.D.R.R.R.R.Y.C.R.R.I.T.D.A.C.V}$PEPTIDE1,PEPTIDE1,2:R3-27:R3|PEPTIDE1,PEPTIDE1,9:R3-20:R3$$$V2.0)", "values": [{"measurement": "IC50", "setting": "[1]", "value": 7330, "unit": "nM"}, {"measurement": "IC50", "setting": "[2]", "value": 120, "unit": "nM"}]}
{"smiles": "CC[C@H](C)[C@@H]1NC(=O)[C@H](CCCNC(=N)N)NC(=O)[C@H](C)NC(=O)[C@@H](NC(=O)[C@H](Cc2ccc(O)cc2)NC(=O)[C@H](CCCNC(=N)N)NC(=O)[C@H](CCCNC(=N)N)NC(=O)[C@H](CCCNC(=N)N)NC(=O)[C@H](CCCNC(=N)N)NC(=O)[C@H](CC(=O)O)NC(=O)[C@H](Cc2ccc(O)cc2)NC(=O)[C@@H]2CCCN2C(=O)[C@H](CO)NC(=O)[C@H](CCCNC(=N)N)NC(=O)[C@@H]2CSSC[C@H](NC(=O)[C@@H](N)[C@@H](C)O)C(=O)N[C@@H](CCCNC(=N)N)C(=O)N[C@@H](CO)C(=O)N[C@@H](CO)C(=O)NCC(=O)N[C@@H](CCCNC(=N)N)C(=O)N[C@@H](Cc3ccc(O)cc3)C(=O)N2)CSSC[C@@H](C(=O)N[C@H](C(=O)O)C(C)C)NC(=O)[C@H](C)NC(=O)[C@H](CC(=O)O)NC(=O)[C@H]([C@@H](C)O)NC1=O", "values": [{"measurement": "IC50", "setting": "[1]", "value": 5610, "unit": "nM"}, {"measurement": "IC50", "setting": "[2]", "value": 14, "unit": "nM"}]}
{"smiles": "CC[C@H](C)[C@@H]1NC(=O)[C@H](CCCNC(=N)N)NC(=O)[C@H](CCCNC(=N)N)NC(=O)[C@@H](NC(=O)[C@H](Cc2ccc(O)cc2)NC(=O)[C@H](C)NC(=O)[C@H](CCCNC(=N)N)NC(=O)[C@H](CCCNC(=N)N)NC(=O)[C@H](CCCNC(=N)N)NC(=O)[C@H](CC(=O)O)NC(=O)[C@H](Cc2ccc(O)cc2)NC(=O)[C@@H]2CCCN2C(=O)[C@H](CO)NC(=O)[C@H](CCCNC(=N)N)NC(=O)[C@@H]2CSSC[C@H](NC(=O)[C@@H](N)[C@@H](C)O)C(=O)N[C@@H](CCCNC(=N)N)C(=O)N[C@@H](CO)C(=O)N[C@@H](CO)C(=O)NCC(=O)N[C@@H](CCCNC(=N)N)C(=O)N[C@@H](Cc3ccc(O)cc3)C(=O)N2)CSSC[C@@H](C(=O)N[C@H](C(=O)O)C(C)C)NC(=O)[C@H](C)NC(=O)[C@H](CC(=O)O)NC(=O)[C@H]([C@@H](C)O)NC1=O", "values": [{"measurement": "IC50", "setting": "[1]", "value": 4520, "unit": "nM"}, {"measurement": "IC50", "setting": "[2]", "value": 54, "unit": "nM"}]}
{"smiles": "CC[C@H](C)[C@@H]1NC(=O)[C@H](CCCNC(=N)N)NC(=O)[C@H](CCCNC(=N)N)NC(=O)[C@@H](NC(=O)[C@H](Cc2ccc(O)cc2)NC(=O)[C@H](CCCNC(=N)N)NC(=O)[C@H](CCCNC(=N)N)NC(=O)[C@H](CCCNC(=N)N)NC(=O)[C@H](CCCNC(=N)N)NC(=O)[C@H](CC(=O)O)NC(=O)[C@H](Cc2ccc(O)cc2)NC(=O)[C@@H]2CCCN2C(=O)[C@H](CO)NC(=O)[C@H](CCCNC(=N)N)NC(=O)[C@@H]2CSSC[C@H](NC(=O)[C@@H](N)[C@@H](C)O)C(=O)N[C@@H](CCCNC(=N)N)C(=O)N[C@@H](CO)C(=O)N[C@@H](CO)C(=O)NCC(=O)N[C@@H](CCCNC(=N)N)C(=O)N[C@@H](Cc3ccc(O)cc3)C(=O)N2)CSSC[C@@H](C(=O)N[C@H](C(=O)O)C(C)C)NC(=O)[C@H](C)NC(=O)[C@@H](C)NC(=O)[C@H]([C@@H](C)O)NC1=O", "values": [{"measurement": "IC50", "setting": "[1]", "value": 6690, "unit": "nM"}, {"measurement": "IC50", "setting": "[2]", "value": 13, "unit": "nM"}]}
{"smiles": "CC[C@H](C)[C@@H]1NC(=O)[C@H](CCCNC(=N)N)NC(=O)[C@H](CCCNC(=N)N)NC(=O)[C@@H]2CSSC[C@H](NC(=O)[C@H](Cc3ccc(O)cc3)NC(=O)[C@H](CCCNC(=N)N)NC(=O)CNC(=O)[C@H](CO)NC(=O)[C@H](CO)NC(=O)[C@H](CCCNC(=N)N)NC(=O)[C@@H](NC(=O)[C@@H](N)[C@@H](C)O)CSSC[C@@H](C(=O)N[C@H](C(=O)O)C(C)C)NC(=O)[C@H](C)NC(=O)[C@H](CC(=O)O)NC(=O)[C@H]([C@@H](C)O)NC1=O)C(=O)N[C@@H](CCCNC(=N)N)C(=O)N[C@@H](CO)C(=O)N1CCC[C@H]1C(=O)N[C@@H](Cc1ccc(O)cc1)C(=O)N[C@@H](CC(=O)O)C(=O)N[C@@H](CCCNC(=N)N)C(=O)N[C@@H](CCCNC(=N)N)C(=O)N[C@@H](C)C(=O)N[C@@H](CCCNC(=N)N)C(=O)N[C@@H](Cc1ccc(O)cc1)C(=O)N2", "values": [{"measurement": "IC50", "setting": "[1]", "value": "> 10000", "unit": "nM"}, {"measurement": "IC50", "setting": "[2]", "value": 58, "unit": "nM"}]}
{"smiles": "CC[C@H](C)[C@@H]1NC(=O)[C@H](CCCNC(=N)N)NC(=O)[C@H](CCCNC(=N)N)NC(=O)[C@@H](NC(=O)[C@H](Cc2ccc(O)cc2)NC(=O)[C@H](CCCNC(=N)N)NC(=O)[C@H](CCCNC(=N)N)NC(=O)[C@H](CCCNC(=N)N)NC(=O)[C@H](CCCNC(=N)N)NC(=O)[C@H](CC(=O)O)NC(=O)[C@H](Cc2ccc(O)cc2)NC(=O)[C@@H]2CCCN2C(=O)[C@H](CO)NC(=O)[C@H](CCCNC(=N)N)NC(=O)[C@@H]2CSSC[C@H](NC(=O)[C@@H](N)[C@@H](C)O)C(=O)N[C@@H](CCCNC(=N)N)C(=O)N[C@@H](C)C(=O)N[C@@H](CO)C(=O)NCC(=O)N[C@@H](CCCNC(=N)N)C(=O)N[C@@H](Cc3ccc(O)cc3)C(=O)N2)CSSC[C@@H](C(=O)N[C@H](C(=O)O)C(C)C)NC(=O)[C@H](C)NC(=O)[C@H](CC(=O)O)NC(=O)[C@H]([C@@H](C)O)NC1=O", "values": [{"measurement": "IC50", "setting": "[1]", "value": 1420, "unit": "nM"}, {"measurement": "IC50", "setting": "[2]", "value": 14, "unit": "nM"}]}
{"smiles": "CC[C@H](C)[C@@H]1NC(=O)[C@H](CCCNC(=N)N)NC(=O)[C@H](CCCNC(=N)N)NC(=O)[C@@H](NC(=O)[C@H](Cc2ccc(O)cc2)NC(=O)[C@H](CCCNC(=N)N)NC(=O)[C@H](CCCNC(=N)N)NC(=O)[C@H](CCCNC(=N)N)NC(=O)[C@H](CCCNC(=N)N)NC(=O)[C@H](CC(=O)O)NC(=O)[C@H](Cc2ccc(O)cc2)NC(=O)[C@@H]2CCCN2C(=O)[C@H](CO)NC(=O)[C@H](CCCNC(=N)N)NC(=O)[C@@H]2CSSC[C@H](NC(=O)[C@@H](N)[C@@H](C)O)C(=O)N[C@@H](CCCNC(=N)N)C(=O)N[C@@H](CO)C(=O)N[C@@H](CO)C(=O)NCC(=O)N[C@@H](CCCNC(=N)N)C(=O)N[C@@H](Cc3ccc(O)cc3)C(=O)N2)CSSC[C@@H](C(=O)N[C@H](C(=O)O)C(C)C)NC(=O)[C@H](C)NC(=O)[C@H](CC(=O)O)NC(=O)[C@H](C)NC1=O", "values": [{"measurement": "IC50", "setting": "[1]", "value": 650, "unit": "nM"}, {"measurement": "IC50", "setting": "[2]", "value": 21, "unit": "nM"}]}
{"smiles": "CC[C@H](C)[C@@H]1NC(=O)[C@H](CCCNC(=N)N)NC(=O)[C@H](CCCNC(=N)N)NC(=O)[C@@H](NC(=O)[C@H](Cc2ccc(O)cc2)NC(=O)[C@H](CCCNC(=N)N)NC(=O)[C@H](CCCNC(=N)N)NC(=O)[C@H](CCCNC(=N)N)NC(=O)[C@H](CCCNC(=N)N)NC(=O)[C@H](CC(=O)O)NC(=O)[C@H](Cc2ccc(O)cc2)NC(=O)[C@@H]2CCCN2C(=O)[C@H](CO)NC(=O)[C@H](CCCNC(=N)N)NC(=O)[C@@H]2CSSC[C@H](NC(=O)[C@@H](N)[C@@H](C)O)C(=O)N[C@@H](CCCNC(=N)N)C(=O)N[C@@H](CO)C(=O)N[C@@H](CO)C(=O)NCC(=O)N[C@@H](CCCNC(=N)N)C(=O)N[C@@H](Cc3ccc(O)cc3)C(=O)N2)CSSC[C@@H](C(=O)N[C@@H](C)C(=O)O)NC(=O)[C@H](C)NC(=O)[C@H](CC(=O)O)NC(=O)[C@H]([C@@H](C)O)NC1=O", "values": [{"measurement": "IC50", "setting": "[1]", "value": 760, "unit": "nM"}, {"measurement": "IC50", "setting": "[2]", "value": 15, "unit": "nM"}]}
{"smiles": "CC[C@H](C)[C@@H]1NC(=O)[C@H](CCCNC(=N)N)NC(=O)[C@H](CCCNC(=N)N)NC(=O)[C@@H](NC(=O)[C@H](Cc2ccc(O)cc2)NC(=O)[C@H](CCCNC(=N)N)NC(=O)[C@H](CCCNC(=N)N)NC(=O)[C@H](CCCNC(=N)N)NC(=O)[C@H](CCCNC(=N)N)NC(=O)[C@H](CC(=O)O)NC(=O)[C@H](Cc2ccc(O)cc2)NC(=O)[C@@H]2CCCN2C(=O)[C@@H](CO)NC(=O)[C@H](C)NC(=O)[C@@H]2CSSC[C@H](NC(=O)[C@@H](N)[C@@H](C)O)C(=O)N[C@@H](CCCNC(=N)N)C(=O)N[C@@H](CO)C(=O)N[C@@H](CO)C(=O)NCC(=O)N[C@@H](CCCNC(=N)N)C(=O)N[C@@H](Cc3ccc(O)cc3)C(=O)N2)CSSC[C@@H](C(=O)N[C@H](C(=O)O)C(C)C)NC(=O)[C@H](C)NC(=O)[C@H](CC(=O)O)NC(=O)[C@H]([C@@H](C)O)NC1=O", "values": [{"measurement": "IC50", "setting": "[1]", "value": 1910, "unit": "nM"}, {"measurement": "IC50", "setting": "[2]", "value": 71, "unit": "nM"}]}
